Active and inactive are the calls of the source.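 Rule for the calls: active = compounds giving half or more protection of infected cells from virus-caused growth loss, again on retest; inactive = the rest.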
Tested on: CEM cells HIV-1 protection, formazan growth assay
Experiment: NCI AIDS Antiviral Assay
Details: for IC50: measured here: growth of uninfected CEM cells
Procedure, shortened: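 Screen of anti-HIV-1 activity in human CEM cells using a formazan-based growth measurement at five drug concentrations. Hits with 50% or greater protection were repeated, and confirmation required reproducible complete protection.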

SMILES | EC50 [µM] | IC50 [µM] | outcome
[Ni+2].[O-]/C(=N\N=C/c1ccc(C(F)(F)F)cc1)c1ccncc1.[O-]/C(=N\N=C\c1ccc(C(F)(F)F)cc1)c1ccncc1 | > 100 | 16.6 | 
CN(C(=O)C12C3C4C1C1C4(C(=O)C45C6C7C4C4C5C6C74C)C3C12C)C(C)(C)C (stereo not drawn) |  |  | inactive
Cc1nc(Nc2ccccc2)sc1C(=O)CC(=O)C(=O)Nc1c(C(C)C)cccc1C(C)C | > 77.6 | > 77.6 | 
CC1CCCC2(C1)OCC(O)CO2 (stereo not drawn) |  |  | inactive
COC(=O)C1=C(\c2ccccc2)c2ccccc2C(=O)N(C2CCCCC2)/C=C\1 | > 200 | 25.7 | 
C=C1N(S(=O)(=O)c2ccc(C)cc2)C(=O)OCC12CCCC2 | > 200 | 44.7 | 
Nc1cccc(C(CC(=O)O)CC(=O)O)c1 | > 200 | > 200 | 
CCNC12CCC(C1)C(C)(C)C2=O (stereo not drawn) | > 200 | > 200 | 
CC#CCC(OC(C)=O)c1ccccc1 (stereo not drawn) |  |  | inactive
NC(=O)c1c(N)ncn1C1OC(CO)C(F)C1O (stereo not drawn) | > 200 | > 200 | 
CC(=O)NC(CCCCN(Cc1ccccc1)C(=O)N(C)N=O)C(=O)NCc1ccccc1 (stereo not drawn) | > 110 | 93.3 | 
N#Cc1ccc(C=C2C(=O)c3ccccc3C2=O)cc1 | > 72.4 | 46.8 | 
O=C1CC(c2c(-c3ccccc3)[nH]c3ccccc23)C(=O)N1 (stereo not drawn) |  |  | inactive
CC1(C)Oc2ccc3c(=O)cc(-c4ccccc4)oc3c2C1C(=O)O (stereo not drawn) | > 200 | > 200 | 
Cc1nc(NC(C)(CO)CO)nc2c1C(=O)Nc1ccccc1N2 | > 200 | > 200 | 
Cc1n(Cc2ccccc2)c2c([n+]1C)C(=O)c1ccccc1C2=O | > 562 | 0.178 | 
COc1ccc(OC)c(NC(=O)C(=O)Nn2c(=S)[nH]c3ccccc3c2=O)c1 | > 631 | 372 | 
Cc1cccc(N2C(=O)C3c4[nH]c5ccc(C)cc5c4C4CCC(C(C)(C)C)CC4C3C2=O)c1 (stereo not drawn) | > 200 | 8.51 | 
COc1ccc2nc3ccccc3c(NCCCCCN(C)CCCl)c2c1 |  |  | inactive
CC1=NN(C(=O)CC(=O)Nc2ccccc2Cl)C(=O)C1N=Nc1ccc(S(=O)(=O)c2ccc(N=NC3C(=O)N(C(=O)CC(=O)Nc4ccccc4Cl)N=C3C)cc2)cc1 (stereo not drawn) | > 100 | > 100 | 
CCOC(=O)/C(=C\c1cc(OC)ccc1OC)P(=O)(OCC)OCC | > 676 | 9.77 | 
COc1cc(-c2nnc3n2NC=C(C(=O)O)S3)cc(OC)c1OC | > 257 | > 257 | 

SMILES | EC50 [µM] | IC50 [µM] | outcome
CCOC(=O)N/N=C(/N)c1cccc([N+](=O)[O-])c1 | > 200 | > 200 | 
COc1cc2c(cc1OC)C1Cc3ccccc3CCN1CC2 (stereo not drawn) | > 200 | 126 | 
CC1(C)NN=C(SCc2ccccc2)NC1=O | 40.7 | 145 | 
Cc1cn(C2CC(N(O)C3C4CC5CC(C4)CC3C5)C(CO)O2)c(=O)[nH]c1=O (stereo not drawn) | > 200 | 120 | 
COc1ccc(C2Oc3ccc(Cl)cc3C=C2[N+](=O)[O-])cc1OC (stereo not drawn) | > 2 | 0.724 | 
O=C1C(CN2CCCC2)CCCC1CN1CCCC1 (stereo not drawn) |  |  | inactive
OCCN1CSC(=S)NCCNC(=S)SC1 | > 63.1 | > 63.1 | 
CCn1c(=O)nc2n(-c3ccccc3)c3ccccc3nc-2c1=O |  |  | inactive
COC1(OC)C2(Cl)C3=CCCC=C3C1(Cl)C(Cl)=C2Cl |  |  | inactive
Cc1nc2ccccc2c(=O)n1-c1ccccc1Br | > 214 | > 214 | 
c1ccc2[nH]c(CSc3nc4ccccc4s3)nc2c1 | > 200 | 120 | 
O=c1oc2ccccc2c(O)c1C1c2ccccc2Oc2c1c(=O)oc1ccccc21 (stereo not drawn) |  |  | inactive
Cc1ccc(C2=Nc3c(c(C)nn3-c3ccccc3)N=C(C(=O)O)C2)cc1 | > 200 | 75.9 | 
CSc1nc(C)c2c(n1)N(c1ccc(Cl)cc1)CC2 | > 200 | > 200 | 
C=C[C@@](C)(/C=C/c1ccc(O)cc1)CCC=C(C)C | > 200 | 25.1 | 
CC(C)(C)OC(=O)[C@@H]1CCC(=S)N1Cc1ccccc1 | > 200 | 135 | 
O=C1C(=Cc2ccc(O)cc2)N=C(c2ccccc2)N1n1c(-c2ccccc2)nc2ccccc2c1=O | > 200 | 77.6 | 
O=C1OC(CN2CCN(c3ccccc3)CC2)CN1C(=S)Nc1ccccc1 (stereo not drawn) | > 200 | 115 | 
CCCN(CCCCC(NC(C)=O)C(=O)NCc1ccccc1)C(=O)N(C)N=O (stereo not drawn) | > 89.1 | > 89.1 | 
c1cnc2c(c1)-n1cccc1C1(CCCCC1)NN2 | > 200 | > 200 | 
CC1(C)CN(CCC#N)C(c2ccc([N+](=O)[O-])cc2)O1 (stereo not drawn) | > 200 | 102 | 
COC(=O)c1ccc2cc1Nc1c(C#N)cnc(=S)n1-2 | > 603 | 363 | 

SMILES | EC50 [µM] | IC50 [µM] | outcome
[N-]=[N+]=Nc1c(Cl)c(=O)n(-c2ccccc2)c2ccccc12 | > 200 | 29.5 | 
CN(NC(=O)c1cccs1)C1=NCCCCN1 | > 200 | > 200 | 
c1ccc2nc(SSc3ccc4ccccc4n3)ccc2c1 | > 200 | 24 | 
c1ccc(CSC2(SCc3ccccc3)CCCC2)cc1 |  |  | inactive
CC(=O)NNc1nc(C)c(C(/C=C/c2cccc([N+](=O)[O-])c2)=N/NC(=S)NN)s1 | > 72.4 | > 72.4 | 
N#Cc1sc2c(c1OC(=O)c1ccc(Cl)cc1)c(=O)n(-c1ccccc1)c(=S)n2-c1ccccc1 | > 200 | 1.2 | 
[O-][N+]1=C2CCC/C(=N/O)C2(O)C2CCCCC21N1CCOCC1 (stereo not drawn) | > 200 | > 200 | 
C=C(C)C(=O)OC1C/C(CO)=C\C(O)C/C(C)=C/C2OC(=O)C(=C)C21 (stereo not drawn) | > 724 | 12.3 | 
O=C(CCCN1CCC(C(=O)c2ccc(F)cc2)CC1)c1ccc(F)cc1 | > 24.5 | > 24.5 | 
C=CC(=O)NC(O)(C(=O)OCC)C(F)(F)F (stereo not drawn) | > 200 | > 200 | 
Cc1cc(=O)oc2cc(N(C)C)ccc12 | > 67.6 | 37.2 | 
O=C1C/C(Br)=C\c2ccccc2-c2ccccc21 | > 1.12 | 0.389 | 
O=c1[nH]n(CCc2ccccn2)c(=O)c2ccccc12 | > 200 | > 200 | 
COC(=O)C1CC23CC1(OC(C)=O)CCC2c1ccc(OC)cc1C3=O (stereo not drawn) | > 61.7 | > 61.7 | 
CC(=O)O[C@H]1CN(S(=O)(=O)c2ccc(C)cc2)C[C@@H]1C1CCCCC1 | > 200 | 28.8 | 
Cc1cc(Cl)cc(S)c1S(=O)(=O)Nc1nnc2ccc3ccccc3n12 | > 200 | 93.3 | 
COC1(OC)CCC2(C)OC(c3ccccc3)C1O2 (stereo not drawn) |  |  | inactive
O=c1[nH]nc(-c2ccccc2)n1/N=C/c1ccccc1O | > 200 | 115 | 
CCCCCCOP(=O)(OCCCCCC)OC(C(=O)OC)C(F)(F)F (stereo not drawn) | > 200 | 44.7 | 
CCCCCC/C=C\CCCCCCCCCc1cccc(OC)c1O | > 200 | > 200 | 
S=C1c2cc(Cl)ccc2NC(=NC2CCCC2)C2CSCN12 (stereo not drawn) | > 200 | 33.9 | 
O=S(=O)(Sc1ccccc1)C(c1ccccc1)c1ccccc1 | > 132 | 21.4 | 

SMILES | EC50 [µM] | IC50 [µM] | outcome
COC(=O)c1ccc(Cc2ccc(C(=O)OC)o2)o1 | > 191 | > 191 | 
O=C1c2cccc3cccc(c23)C(=O)N1CC1CCCO1 (stereo not drawn) |  |  | inactive
CN1CCC2CC1c1ccn(C)c1C2=O (stereo not drawn) | > 1230 | > 1230 | 
COc1cc(COC(=O)N(C)[C@@H](Cc2ccccc2)C(=O)O)c([N+](=O)[O-])cc1OC | > 603 | 302 | 
O=C(OC[C@H]1C[C@H]2C(=O)OCCC[C@H]2O1)c1ccccc1 | > 200 | > 200 | 
CC(C)(CO)C(O)C(=O)NCCCO (stereo not drawn) | > 200 | > 200 | 
CO/C(N)=C(\C#N)N=Cc1ccccc1 | > 200 | 105 | 
CCC(C)[C@H](NC(=O)C1CCCN1C[C@H](O)[C@H](Cc1ccccc1)NC(=O)[C@@H](CC(N)=O)NC(=O)OCc1ccccc1)C(=O)N[C@H](Cc1ccccc1)C(=O)NCCCC[C@@H]1NC(=O)[C@H](CC(C)C)N(C)C(=O)[C@H](C(C)C)NC(=O)[C@H](CC(C)C)N(C)C(=O)[C@@H](CO)N(C)C(=O)[C@H](CC)NC(=O)[C@H]([C@H](O)C(C)C)N(C)C(=O)[C@H](C(C)C)N(C)C(=O)[C@H](CC(C)C)N(C)C(=O)[C@H](CC(C)C)N(C)C(=O)[C@@H](C)NC1=O (stereo partly drawn) | 0.501 | 67.6 | 
Cc1ccc2cc(N)c3ccc(C)nc3c2n1 | > 2 | 0.309 | 
COc1ccccc1CNCCCCCCNCCSSCCNCCCCCCNCc1ccccc1OC | > 200 | 57.5 | 
CN(NC(=O)/C(=C\c1ccccc1Cl)NC(=O)c1ccccc1)c1cn[nH]c(=O)c1Cl | > 100 | 52.5 | 
Cc1n[nH]c(=O)n1N1C(=O)c2ccccc2C1=O | > 200 | > 200 | 
CCOC(=O)C(NO)C(Sc1ccccc1)c1ccc(OC)cc1 (stereo not drawn) |  |  | inactive
CCC1(O)CN(CCOC)[C@H]2C[C@@H]1C(=O)c1[nH]c3ccccc3c12 (stereo partly drawn) | > 200 | > 200 | 
Cc1nc(Cc2n[nH]c(C)n2)n[nH]1 | > 200 | > 200 | 
CC(C)(C)OC(=O)N(CC1OC(n2cnc3c(N)ncnc32)C2OC(C)(C)OC12)OC(=O)C(C)(C)C (stereo not drawn) | > 200 | > 200 | 
Cn1c(COc2ccc(/C=N/NC(=O)c3cccc(C(=O)N/N=C/c4ccc(OCc5c[n+]6ccccc6n5C)cc4)c3)cc2)c[n+]2ccccc12 | > 6.92 | > 6.92 | 
S=C1NC2=C(COc3ccccc32)C(c2ccc(Cl)cc2)N1 (stereo not drawn) | > 200 | 23.4 | 
NC(CCC(=O)NC(CS)C(=O)NCC(=O)O)C(=O)O (stereo not drawn) | > 288 | > 288 | 
CC(C)C(OC(=O)c1cc(NC(=S)c2cccn2C)ccc1Cl)C(C)C | 0.234 | 18.2 | 
O=C(N/C(=C\c1ccccc1[N+](=O)[O-])c1nc2ccccc2[nH]1)c1ccccc1 | > 49 | > 49 | 
c1ccc2sc(N3CCCCC3)nc2c1 | > 200 | 81.3 | 

From PubChem BioAssay AID179 (DTP/NCI, 2004)
